The test has as its target T1, human PD-1 / PD-L1-Ig binding on Jurkat cell line over-expressing human PD-1 (Jurkat-PD-1) (Homo sapiens, UniProt Q15116).
T1 construct: expressed in transfected cells; host or cells: Jurkat
Description: Jurkat-PD-1 Cell Binding High-Content Screening Assay (CBA). Type of test: cell-based. To be noted: PE-labeled PD-L1-Ig 20 nM final. The procedure, abridged: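 Read-out: high-content imaging of PE-tagged PD-L1-Ig bound to Jurkat cells overexpressing human PD-1, after fixation with 4% paraformaldehyde and Hoechst 33342 nuclear staining. Ligand was used at 20 nM final for 1 hour, after a 2 h compound exposure at 37° C in serum-containing DMEM.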

The mark [1] stands for this setting: Jurkat-PD-1 cells, read-out: Jurkat HPD1_PDL1 IC50.

Read-outs that look alike come from different tables or passages of the source. Where a SMILES comes first, the peptide text is derived from it. Bridges are numbered along the chain shown (N, C = ends). [ ]: non-standard residue; d: D form. The star is where a group is joined. ξ: configuration not given here. Ala(morpholin-4-yl) = N[C@@H](CN1CCOCC1)C(=O)O; Phe(4-CONH2) = NC(=O)c1ccc(C[C@H](N)C(=O)O)cc1; Phe(4-COOH) = N[C@@H](Cc1ccc(C(=O)O)cc1)C(=O)O; Bip = N[C@@H](Cc1ccc(-c2ccccc2)cc1)C(=O)O; Phe(3-Me) = Cc1cccc(C[C@H](N)C(=O)O)c1; Val(3-OH) = CC(C)(O)[C@H](N)C(=O)O; 3Pal = N[C@@H](Cc1cccnc1)C(=O)O; 4Pal = N[C@@H](Cc1ccncc1)C(=O)O; Cha = N[C@@H](CC1CCCCC1)C(=O)O; Ile(3ξ) = CCC(C)[C@H](N)C(=O)O; Tle = CC(C)(C)[C@H](N)C(=O)O; Carboxymethyl = O=C(O)C*; Orn = NCCC[C@H](N)C(=O)O; Pra = C#CC[C@H](N)C(=O)O; Dab = NCC[C@H](N)C(=O)O; Dap = NC[C@H](N)C(=O)O; Propargyl = C#CC*

T1 sequence (Q15116 25-288): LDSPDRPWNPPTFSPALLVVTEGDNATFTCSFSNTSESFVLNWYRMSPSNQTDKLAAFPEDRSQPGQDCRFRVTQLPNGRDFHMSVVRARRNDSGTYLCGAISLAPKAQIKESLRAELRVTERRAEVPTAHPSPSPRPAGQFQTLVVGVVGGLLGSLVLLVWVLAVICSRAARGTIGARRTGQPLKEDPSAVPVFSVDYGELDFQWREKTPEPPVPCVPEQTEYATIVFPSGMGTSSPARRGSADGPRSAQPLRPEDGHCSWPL

Consider `CC(C)C[C@H]1NC(=O)[C@H](CCCN)NC(=O)[C@H](CCCNC(N)=O)NC(=O)[C@H](Cc2ccc(-c3ccccc3)cc2)NC(=O)[C@H](C(C)C)NC(=O)[C@H](Cc2c[nH]c3ccccc23)NC(=O)[C@H](CC(=O)O)NC(=O)[C@H](Cc2ccc(OCC(=O)O)cc2)NC(=O)[C@H](Cc2ccncc2)NC(=O)CSC[C@@H](C(=O)N[C@@H](C)C(N)=O)NC(=O)[C@H]([C@@H](C)O)NC(=O)[C@H](C(C)C)NC(=O)[C@H](CC2CCCCC2)NC(=O)[C@H](Cc2c[nH]cn2)NC1=O` [Compound 1610], for which the IC50 (Jurkat HPD1_PDL1 IC50, Jurkat-PD-1 cells) was 21.5 nM.
`C#CCOc1ccc(C[C@@H]2NC(=O)[C@H](C(C)C)NC(=O)[C@H](CC3CCCCC3)NC(=O)[C@H](CCN)NC(=O)[C@@H](CC(C)C)NC(=O)[C@H](CCCN)NC(=O)[C@H](Cc3ccc(OCC(=O)O)cc3)NC(=O)[C@H](Cc3ccc(-c4ccccc4)cc3)NC(=O)[C@H](Cc3ccc(OCC(=O)O)cc3)NC(=O)[C@H](Cc3cccc(C)c3)NC(=O)[C@H](CC(=O)O)NC(=O)[C@H](Cc3ccc(OCC(=O)O)cc3)NC(=O)[C@H](Cc3ccncc3)NC(=O)CSC[C@@H](C(=O)N[C@@H](CCN)C(N)=O)NC2=O)cc1` [Compound 1821] ({CH2CO}-[4Pal]Y(Carboxymethyl)D[Phe(3-Me)]Y(Carboxymethyl)[Bip]Y(Carboxymethyl)[Orn][dL][Dab][Cha]VY(Propargyl)C[Dab]-NH2; thioether N-14): the IC50 under setting [1] turned out to be 191 nM.
On the same count and under the same terms, in the case of `C#CCOc1ccc(C[C@@H]2NC(=O)[C@H](CCCNC(=N)N)NC(=O)CSC[C@@H](C(=O)N[C@@H](CCN)C(N)=O)NC(=O)[C@H](CCC(=O)O)NC(=O)[C@H](C(C)C)NC(=O)[C@H](CC3CCCCC3)NC(=O)[C@H](CCN)NC(=O)[C@@H](CC(C)C)NC(=O)[C@H](CCCN)NC(=O)[C@H](Cc3ccc(OCC(=O)O)cc3)NC(=O)[C@H](Cc3ccc(-c4ccccc4)cc3)NC(=O)[C@H](Cc3ccc(OCC(=O)O)cc3)NC(=O)[C@H](Cc3cccc(C)c3)NC(=O)[C@H](CC(=O)O)NC2=O)cc1` [Compound 1815] ({CH2CO}-RY(Propargyl)D[Phe(3-Me)]Y(Carboxymethyl)[Bip]Y(Carboxymethyl)[Orn][dL][Dab][Cha]VEC[Dab]-NH2; thioether N-14) it was 22.2 nM; in that of `Cc1cccc(C[C@@H]2NC(=O)[C@H](CC(=O)O)NC(=O)[C@H](Cc3ccc(C(N)=O)cc3)NC(=O)[C@H](Cc3ccncc3)NC(=O)CSC[C@@H](C(=O)N[C@@H](CCN)C(N)=O)NC(=O)[C@H](CO)NC(=O)[C@H](C(C)(C)O)NC(=O)[C@H](CC3CCCCC3)NC(=O)[C@H](CCN)NC(=O)[C@@H](CC(C)C)NC(=O)[C@H](CCCN)NC(=O)[C@H](Cc3ccc(OCC(=O)O)cc3)NC(=O)[C@H](Cc3ccc(-c4ccccc4)cc3)NC(=O)[C@H](Cc3ccc(OCC(=O)O)cc3)NC2=O)c1` [Compound 2636] ({CH2CO}-[4Pal][Phe(4-CONH2)]D[Phe(3-Me)]Y(Carboxymethyl)[Bip]Y(Carboxymethyl)[Orn][dL][Dab][Cha][Val(3-OH)]SC[Dab]-NH2; thioether N-14), 4.9 nM; in that of `Cc1cccc(C[C@@H]2NC(=O)[C@H](CC(=O)O)NC(=O)[C@H](Cc3ccc(C(=O)O)cc3)NC(=O)[C@H](Cc3ccncc3)NC(=O)CSC[C@@H](C(=O)N[C@@H](CCN)C(N)=O)NC(=O)[C@H](CO)NC(=O)[C@H](C(C)(C)C)NC(=O)[C@H](CC3CCCCC3)NC(=O)[C@H](CCN)NC(=O)[C@@H](CC(C)C)NC(=O)[C@H](CCCN)NC(=O)[C@H](Cc3ccc(OCC(=O)O)cc3)NC(=O)[C@H](Cc3ccc(-c4ccccc4)cc3)NC(=O)[C@H](Cc3ccc(OCC(=O)O)cc3)NC2=O)c1` [Compound 2294] ({CH2CO}-[4Pal][Phe(4-COOH)]D[Phe(3-Me)]Y(Carboxymethyl)[Bip]Y(Carboxymethyl)[Orn][dL][Dab][Cha][Tle]SC[Dab]-NH2; thioether N-14), 9.4 nM.
As for `Cc1cccc(C[C@@H]2NC(=O)[C@H](CC(=O)O)NC(=O)[C@H](Cc3ccc(OCC(=O)O)cc3)NC(=O)[C@H](CCCNC(=N)N)NC(=O)CSC[C@@H](C(N)=O)NC(=O)[C@H]([C@@H](C)O)NC(=O)[C@H](C(C)C)NC(=O)[C@H](CC3CCCCC3)NC(=O)[C@H](CCN)NC(=O)[C@@H](CC(C)C)NC(=O)[C@H](CCCN)NC(=O)[C@H](Cc3ccc(OCC(=O)O)cc3)NC(=O)[C@H](Cc3ccc(-c4ccccc4)cc3)NC(=O)[C@H](Cc3ccc(O)cc3)NC2=O)c1` [Compound 2056] ({CH2CO}-RY(Carboxymethyl)D[Phe(3-Me)]Y[Bip]Y(Carboxymethyl)[Orn][dL][Dab][Cha]VTC-NH2; thioether N-14), under setting [1], the IC50 came to 27.5 nM.
Turning to `C#CC[C@H](NC(=O)[C@H](CCN)NC(=O)[C@@H]1CSCC(=O)N[C@@H](CN2CCOCC2)C(=O)N[C@@H](Cc2ccc(C(=O)O)cc2)C(=O)N[C@@H](CC(=O)O)C(=O)N[C@@H](Cc2cccc(C)c2)C(=O)N[C@@H](Cc2ccc(C(=O)O)cc2)C(=O)N[C@@H](Cc2ccc(-c3ccccc3)cc2)C(=O)N[C@@H](Cc2ccc(C(=O)O)cc2)C(=O)N[C@@H](CCCN)C(=O)N[C@H](CC(C)C)C(=O)N[C@@H](CCN)C(=O)N[C@@H](CC2CCCCC2)C(=O)N[C@@H](C(C)(C)O)C(=O)N[C@@H](CO)C(=O)N1)C(N)=O` [Compound 1847] ({CH2CO}-[Ala(morpholin-4-yl)][Phe(4-COOH)]D[Phe(3-Me)][Phe(4-COOH)][Bip][Phe(4-COOH)][Orn][dL][Dab][Cha][Val(3-OH)]SC[Dab][Pra]-NH2; thioether N-14), under setting [1], the 50% inhibitory concentration (IC50) was determined as 2.1 nM.
Turning to `CCC(C)[C@@H]1NC(=O)[C@H](Cc2ccc(-c3ccccc3)cc2)NC(=O)[C@H](C(C)C)NC(=O)[C@H](Cc2cccc(C)c2)NC(=O)[C@H](CC(=O)O)NC(=O)[C@H](Cc2ccc(-c3cccc(C(=O)O)c3)cc2)NC(=O)[C@H](CN)NC(=O)CSC[C@@H](C(=O)N[C@@H](C)C(N)=O)NC(=O)[C@H]([C@@H](C)O)NC(=O)[C@H](C(C)C)NC(=O)[C@H](CC2CCCCC2)NC(=O)[C@H](CCN)NC(=O)[C@@H](CC(C)C)NC(=O)[C@H](CCCN)NC1=O` (stereo partly shown) [Compound 2224], under setting [1], the IC50 was 14.1 nM.
On the same count and under the same terms, in the case of `Cc1cccc(C[C@@H]2NC(=O)[C@H](CC(=O)O)NC(=O)[C@H](Cc3ccc(OCC(=O)O)cc3)NC(=O)[C@H]([C@@H](C)O)NC(=O)CSC[C@@H](C(N)=O)NC(=O)[C@H](CC(N)=O)NC(=O)[C@H](C(C)C)NC(=O)[C@H](CC3CCCCC3)NC(=O)[C@H](CCN)NC(=O)[C@@H](CC(C)C)NC(=O)[C@H](CCCN)NC(=O)[C@H](Cc3ccc(OCC(=O)O)cc3)NC(=O)[C@H](Cc3ccc(-c4ccccc4)cc3)NC(=O)[C@H](Cc3ccc(OCC(=O)O)cc3)NC2=O)c1` [Compound 1797] ({CH2CO}-TY(Carboxymethyl)D[Phe(3-Me)]Y(Carboxymethyl)[Bip]Y(Carboxymethyl)[Orn][dL][Dab][Cha]VNC-NH2; thioether N-14) it was 23.3 nM; in that of `C#CC[C@H](NC(=O)[C@@H](C)NC(=O)[C@@H]1CSCC(=O)N[C@@H](Cc2c[nH]cn2)C(=O)N[C@@H](Cc2ccc(OCC(=O)O)cc2)C(=O)N[C@@H](CC(=O)O)C(=O)N[C@@H](Cc2c[nH]c3ccccc23)C(=O)N[C@@H](C(C)C)C(=O)N[C@@H](Cc2ccc(-c3ccccc3)cc2)C(=O)N[C@@H](C(C)C)C(=O)N[C@@H](CCCN)C(=O)N[C@H](CC(C)C)C(=O)N[C@@H](CCN)C(=O)N[C@@H](CC2CCCCC2)C(=O)N[C@@H](C(C)(C)O)C(=O)N[C@@H](CO)C(=O)N1)C(N)=O` [Compound 2327] ({CH2CO}-HY(Carboxymethyl)DWV[Bip]V[Orn][dL][Dab][Cha][Val(3-OH)]SC[dA][Pra]-NH2; thioether N-14), 8.5 nM; in that of `CC(C)C[C@H]1NC(=O)[C@H](CCCN)NC(=O)[C@H](CCC(=O)O)NC(=O)[C@H](Cc2ccc(-c3ccccc3)cc2)NC(=O)[C@H](C(C)C)NC(=O)[C@H](Cc2c[nH]c3ccccc23)NC(=O)[C@H](CC(=O)O)NC(=O)[C@H](Cc2cccnc2)NC(=O)[C@H](CC(N)=O)NC(=O)CSC[C@@H](C(=O)N[C@@H](C)C(N)=O)NC(=O)[C@H]([C@@H](C)O)NC(=O)[C@H](C(C)C)NC(=O)[C@H](CC2CCCCC2)NC(=O)[C@H](CCN)NC1=O` [Compound 2170] ({CH2CO}-N[3Pal]DWV[Bip]E[Orn][dL][Dab][Cha]VTCA-NH2; thioether N-14), 5.4 nM.
As to `Cc1cccc(C[C@@H]2NC(=O)[C@H](CC(=O)O)NC(=O)[C@H](Cc3ccc(OCC(=O)O)cc3)NC(=O)[C@H](CN)NC(=O)CSC[C@@H](C(=O)N[C@@H](C)C(N)=O)NC(=O)[C@H]([C@@H](C)O)NC(=O)[C@H](C(C)C)NC(=O)[C@H](CC3CCCCC3)NC(=O)[C@H](CCN)NC(=O)[C@@H](CC(C)C)NC(=O)[C@H](CCCN)NC(=O)[C@H](CCN)NC(=O)[C@H](Cc3ccc(-c4ccccc4)cc3)NC(=O)[C@H](C(C)C)NC2=O)c1` [Compound 1309] ({CH2CO}-[Dap]Y(Carboxymethyl)D[Phe(3-Me)]V[Bip][Dab][Orn][dL][Dab][Cha]VTCA-NH2; thioether N-14), under setting [1], the IC50 worked out at 48.4 nM.
Same read-out and setting: in the case of `CCC(C)[C@@H]1NC(=O)[C@H](Cc2ccc(-c3ccccc3)cc2)NC(=O)[C@H](C(C)C)NC(=O)[C@H](Cc2cccc(C)c2)NC(=O)[C@H](CC(=O)O)NC(=O)[C@H](Cc2ccc(C(=O)O)cc2)NC(=O)[C@H](Cc2ccncc2)NC(=O)CSC[C@@H](C(N)=O)NC(=O)[C@H](CC(N)=O)NC(=O)[C@H](C(C)C)NC(=O)[C@H](CC2CCCCC2)NC(=O)[C@H](CCN)NC(=O)[C@@H](CC(C)C)NC(=O)[C@H](CCCN)NC1=O` (stereo partly drawn) [Compound 2279] ({CH2CO}-[4Pal][Phe(4-COOH)]D[Phe(3-Me)]V[Bip][Ile(3ξ)][Orn][dL][Dab][Cha]VNC-NH2; thioether N-14) it was 15.6 nM.

Values taken from patent publication US20250163104A1, “MACROCYCLIC IMMUNOMODULATORS” (priority 2021, published 2025).
